Data as given in ChEMBL document CHEMBL4507307 (2021).

How the values were obtained:
Rattus norvegicus = species: Rattus norvegicus; conditions: Compound concentration 10.0 uM
[1] = target: Muscarinic acetylcholine receptor M1 (Homo sapiens) (UniProt P11229); conditions: Compound concentration 10.0 uM
[2] = target: Beta-3 adrenergic receptor (Homo sapiens, UniProt P13945); conditions: Compound concentration 10.0 uM
[3] = target: Muscarinic acetylcholine receptor M3 (Homo sapiens) (UniProt P20309); conditions: Compound concentration 10.0 uM
[4] = target: 5-hydroxytryptamine receptor 1E (Homo sapiens, UniProt P28566); test: GPCRScan assay: inhibition of 5-HT1E; parameters: radioligand conc. used [nm] 2.1 – 5.0, parental cells stable HEK
[5] = target: Sigma intracellular receptor 2 (Homo sapiens, UniProt Q5BJF2); test: GPCRScan assay: inhibition of Sigma 2; parameters: radioligand conc. used [nm] 5.0, parental cells HEKT
[6] = target: Alpha-1B adrenergic receptor (Homo sapiens, UniProt P35368); test: GPCRScan assay: inhibition of Alpha1B; parameters: radioligand conc. used [nm] 0.3 – 1.0, parental cells stable HEK
Histamine H1 receptor = Histamine H1 receptor (Homo sapiens, UniProt P35367); test: GPCRScan assay: inhibition of H1; parameters: radioligand conc. used [nm] 0.6 – 2.0, parental cells stable HEK
[7] = target: 5-hydroxytryptamine receptor 2C (Homo sapiens) (UniProt P28335); conditions: Compound concentration 10.0 uM
[8] = target: 5-hydroxytryptamine receptor 2A (Homo sapiens, UniProt P28223); test: GPCRScan assay: inhibition of 5-HT2A; parameters: radioligand conc. used [nm] 1.2 – 2.4, parental cells HEKT
[9] = target: Alpha-1D adrenergic receptor (Homo sapiens) (UniProt P25100); conditions: Compound concentration 10.0 uM
Histamine H2 receptor = Histamine H2 receptor (Homo sapiens, UniProt P25021); test: GPCRScan assay: inhibition of H2; parameters: radioligand conc. used [nm] 0.02 – 0.05, parental cells Stable HEK
[10] = target: Muscarinic acetylcholine receptor M1 (Homo sapiens, UniProt P11229); test: GPCRScan assay: inhibition of M1; parameters: radioligand conc. used [nm] 0.3 – 1.2, parental cells stable CHO
D(3) dopamine receptor = D(3) dopamine receptor (Homo sapiens, UniProt P35462); test: GPCRScan assay: inhibition of D3; parameters: radioligand conc. used [nm] 0.5 – 1.8, parental cells HEKT
[11] = target: Protein kinase C alpha type (Homo sapiens) (UniProt P17252); test: PRKCA (PKC alpha) Kinase activity screen
[12] = target: Dual specificity mitogen-activated protein kinase kinase 1 (Homo sapiens) (UniProt Q02750); test: MAP2K1 (MEK1) Kinase activity screen
[13] = target: SRSF protein kinase 2 (Homo sapiens) (UniProt P78362); test: SRPK2 Kinase activity screen
[14] = target: Proto-oncogene tyrosine-protein kinase ROS (Homo sapiens) (UniProt P08922); test: ROS1 Kinase activity screen
[15] = target: Hepatocyte growth factor receptor (Homo sapiens) (UniProt P08581); test: MET (cMet) Kinase activity screen; conditions: Compound concentration 1.0 uM
[16] = target: CDK2/Cyclin A2 (Homo sapiens) (UniProt P24941+P20248); test: CDK2/cyclin A Kinase activity screen; format: protein-complex assay
[17] = target: Dual specificity tyrosine-phosphorylation-regulated kinase 4 (Homo sapiens) (UniProt Q9NR20); test: DYRK4 Kinase activity screen
[18] = target: Ephrin type-B receptor 1 (Homo sapiens) (UniProt P54762); test: EPHB1 Kinase activity screen
[19] = target: Mitogen-activated protein kinase 1 (Homo sapiens) (UniProt P28482); test: MAPK1 (ERK2) Kinase activity screen
[20] = target: Dual specificity protein kinase CLK2 (Homo sapiens, UniProt P49760); test: CLK2 Kinase activity screen
[21] = target: Ephrin type-A receptor 1 (Homo sapiens) (UniProt P21709); test: EPHA1 Kinase activity screen
[22] = target: cAMP-dependent protein kinase catalytic subunit alpha (Homo sapiens) (UniProt P17612); test: PRKACA (PKA) Kinase activity screen
[23] = target: Mitogen-activated protein kinase 8 (Homo sapiens) (UniProt P45983); test: MAPK8 (JNK1) Kinase activity screen
[24] = target: Homeodomain-interacting protein kinase 1 (Homo sapiens) (UniProt Q86Z02); test: HIPK1 (Myak) Kinase activity screen
[25] = target: Rho-associated protein kinase 1 (Homo sapiens) (UniProt Q13464); test: ROCK1 Kinase activity screen
[26] = target: Cyclin-dependent kinase 5/CDK5 activator 1 (Homo sapiens) (UniProt Q00535+Q15078); test: CDK5/p35 Kinase activity screen; format: protein-complex assay
[27] = target: Tyrosine-protein kinase JAK1 (Homo sapiens) (UniProt P23458); test: JAK1 Kinase activity screen; conditions: Compound concentration 0.1 uM
[28] = target: Mast/stem cell growth factor receptor Kit (Homo sapiens) (UniProt P10721); test: KIT Kinase activity screen
[29] = target: Mitogen-activated protein kinase 14 (Homo sapiens) (UniProt Q16539); test: MAPK14 (p38 alpha) Kinase activity screen
[30] = target: Angiopoietin-1 receptor (Homo sapiens) (UniProt Q02763); test: TEK (Tie2) Kinase activity screen
[31] = target: MAP kinase-activated protein kinase 2 (Homo sapiens) (UniProt P49137); test: MAPKAPK2 Kinase activity screen
[32] = target: Dual specificity protein kinase CLK1 (Homo sapiens, UniProt P49759); test: CLK1 Kinase activity screen
[33] = target: Serine/threonine-protein kinase pim-1 (Homo sapiens) (UniProt P11309); test: PIM1 Kinase activity screen
[34] = target: Ephrin type-A receptor 5 (Homo sapiens) (UniProt P54756); test: EPHA5 Kinase activity screen
[35] = target: Aurora kinase B (Homo sapiens) (UniProt Q96GD4); test: AURKB (Aurora B) Kinase activity screen
[36] = target: Proto-oncogene tyrosine-protein kinase receptor Ret (Homo sapiens) (UniProt P07949); test: RET Kinase activity screen
[37] = target: Serine/threonine-protein kinase Nek1 (Homo sapiens) (UniProt Q96PY6); test: NEK1 Kinase activity screen
[38] = Compound concentration 0.123 uM

Chain of Histamine H1 receptor (P35367 whole entry): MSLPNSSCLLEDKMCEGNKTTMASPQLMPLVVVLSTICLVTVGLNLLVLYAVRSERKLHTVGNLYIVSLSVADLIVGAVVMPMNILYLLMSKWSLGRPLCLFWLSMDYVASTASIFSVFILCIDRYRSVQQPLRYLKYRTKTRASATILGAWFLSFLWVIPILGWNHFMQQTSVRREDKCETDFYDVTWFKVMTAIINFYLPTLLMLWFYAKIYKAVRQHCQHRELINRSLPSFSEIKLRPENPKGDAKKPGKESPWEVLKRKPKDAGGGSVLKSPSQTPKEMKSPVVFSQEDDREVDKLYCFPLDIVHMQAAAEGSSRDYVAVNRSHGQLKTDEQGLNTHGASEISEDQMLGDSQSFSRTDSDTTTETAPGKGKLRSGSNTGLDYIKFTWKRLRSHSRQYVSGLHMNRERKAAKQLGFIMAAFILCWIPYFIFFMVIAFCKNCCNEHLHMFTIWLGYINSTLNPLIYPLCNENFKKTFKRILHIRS
Chain of Alpha-1B adrenergic receptor (P35368 whole entry): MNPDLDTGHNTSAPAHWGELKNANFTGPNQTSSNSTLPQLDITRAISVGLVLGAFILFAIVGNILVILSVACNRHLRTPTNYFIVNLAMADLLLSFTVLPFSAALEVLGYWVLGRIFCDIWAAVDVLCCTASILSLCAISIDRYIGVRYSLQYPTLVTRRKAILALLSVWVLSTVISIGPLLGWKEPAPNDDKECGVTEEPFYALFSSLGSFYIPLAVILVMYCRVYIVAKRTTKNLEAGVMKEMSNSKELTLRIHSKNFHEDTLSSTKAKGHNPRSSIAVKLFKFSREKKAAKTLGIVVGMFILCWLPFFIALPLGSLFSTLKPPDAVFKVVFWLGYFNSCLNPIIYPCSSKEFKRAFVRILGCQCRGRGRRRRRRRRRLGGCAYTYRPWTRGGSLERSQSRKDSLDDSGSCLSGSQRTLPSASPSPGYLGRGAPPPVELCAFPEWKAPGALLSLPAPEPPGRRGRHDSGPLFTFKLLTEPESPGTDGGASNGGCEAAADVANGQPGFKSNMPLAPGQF
Chain of Aurora kinase B (Homo sapiens) (Q96GD4 whole entry): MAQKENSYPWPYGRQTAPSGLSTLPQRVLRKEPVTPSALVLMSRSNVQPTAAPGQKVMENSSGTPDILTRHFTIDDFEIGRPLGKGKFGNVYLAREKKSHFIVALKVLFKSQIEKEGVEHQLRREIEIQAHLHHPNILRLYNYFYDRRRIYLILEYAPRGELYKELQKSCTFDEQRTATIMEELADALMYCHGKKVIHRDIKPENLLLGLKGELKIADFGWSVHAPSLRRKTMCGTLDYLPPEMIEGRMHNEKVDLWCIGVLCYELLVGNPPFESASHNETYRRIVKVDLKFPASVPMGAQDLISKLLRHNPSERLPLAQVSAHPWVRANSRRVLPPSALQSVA
Chain of Homeodomain-interacting protein kinase 1 (Homo sapiens) (Q86Z02 whole entry, looked up): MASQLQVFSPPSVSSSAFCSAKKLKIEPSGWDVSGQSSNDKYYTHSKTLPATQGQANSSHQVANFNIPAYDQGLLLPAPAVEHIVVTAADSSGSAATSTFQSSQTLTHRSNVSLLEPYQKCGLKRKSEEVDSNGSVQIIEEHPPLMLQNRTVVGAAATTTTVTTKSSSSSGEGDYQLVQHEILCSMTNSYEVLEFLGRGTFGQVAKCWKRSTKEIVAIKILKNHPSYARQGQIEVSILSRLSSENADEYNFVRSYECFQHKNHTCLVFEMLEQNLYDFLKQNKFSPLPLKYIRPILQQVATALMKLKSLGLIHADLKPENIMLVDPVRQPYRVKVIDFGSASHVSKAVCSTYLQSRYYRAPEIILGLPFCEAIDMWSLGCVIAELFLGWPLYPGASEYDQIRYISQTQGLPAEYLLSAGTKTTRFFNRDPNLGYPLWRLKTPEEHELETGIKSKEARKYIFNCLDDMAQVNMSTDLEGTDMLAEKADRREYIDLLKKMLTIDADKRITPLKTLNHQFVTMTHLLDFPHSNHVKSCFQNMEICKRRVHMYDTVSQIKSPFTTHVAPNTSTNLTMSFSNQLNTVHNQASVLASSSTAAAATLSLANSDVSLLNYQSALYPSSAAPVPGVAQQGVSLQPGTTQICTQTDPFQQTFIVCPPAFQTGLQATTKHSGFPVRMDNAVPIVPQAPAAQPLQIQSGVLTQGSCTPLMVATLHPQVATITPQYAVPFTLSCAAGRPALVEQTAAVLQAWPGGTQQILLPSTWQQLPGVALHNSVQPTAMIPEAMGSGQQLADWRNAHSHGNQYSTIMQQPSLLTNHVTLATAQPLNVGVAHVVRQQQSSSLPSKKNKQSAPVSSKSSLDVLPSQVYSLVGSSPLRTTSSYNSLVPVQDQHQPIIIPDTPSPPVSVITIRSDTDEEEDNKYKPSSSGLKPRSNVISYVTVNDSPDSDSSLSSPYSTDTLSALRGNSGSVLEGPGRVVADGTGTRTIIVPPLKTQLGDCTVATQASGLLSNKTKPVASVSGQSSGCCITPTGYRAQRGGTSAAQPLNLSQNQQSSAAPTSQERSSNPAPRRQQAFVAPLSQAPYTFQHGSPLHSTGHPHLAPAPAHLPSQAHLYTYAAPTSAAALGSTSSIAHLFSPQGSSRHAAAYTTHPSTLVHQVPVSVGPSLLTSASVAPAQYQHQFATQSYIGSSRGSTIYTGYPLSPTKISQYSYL
Chain of Angiopoietin-1 receptor (Homo sapiens) (Q02763 whole entry): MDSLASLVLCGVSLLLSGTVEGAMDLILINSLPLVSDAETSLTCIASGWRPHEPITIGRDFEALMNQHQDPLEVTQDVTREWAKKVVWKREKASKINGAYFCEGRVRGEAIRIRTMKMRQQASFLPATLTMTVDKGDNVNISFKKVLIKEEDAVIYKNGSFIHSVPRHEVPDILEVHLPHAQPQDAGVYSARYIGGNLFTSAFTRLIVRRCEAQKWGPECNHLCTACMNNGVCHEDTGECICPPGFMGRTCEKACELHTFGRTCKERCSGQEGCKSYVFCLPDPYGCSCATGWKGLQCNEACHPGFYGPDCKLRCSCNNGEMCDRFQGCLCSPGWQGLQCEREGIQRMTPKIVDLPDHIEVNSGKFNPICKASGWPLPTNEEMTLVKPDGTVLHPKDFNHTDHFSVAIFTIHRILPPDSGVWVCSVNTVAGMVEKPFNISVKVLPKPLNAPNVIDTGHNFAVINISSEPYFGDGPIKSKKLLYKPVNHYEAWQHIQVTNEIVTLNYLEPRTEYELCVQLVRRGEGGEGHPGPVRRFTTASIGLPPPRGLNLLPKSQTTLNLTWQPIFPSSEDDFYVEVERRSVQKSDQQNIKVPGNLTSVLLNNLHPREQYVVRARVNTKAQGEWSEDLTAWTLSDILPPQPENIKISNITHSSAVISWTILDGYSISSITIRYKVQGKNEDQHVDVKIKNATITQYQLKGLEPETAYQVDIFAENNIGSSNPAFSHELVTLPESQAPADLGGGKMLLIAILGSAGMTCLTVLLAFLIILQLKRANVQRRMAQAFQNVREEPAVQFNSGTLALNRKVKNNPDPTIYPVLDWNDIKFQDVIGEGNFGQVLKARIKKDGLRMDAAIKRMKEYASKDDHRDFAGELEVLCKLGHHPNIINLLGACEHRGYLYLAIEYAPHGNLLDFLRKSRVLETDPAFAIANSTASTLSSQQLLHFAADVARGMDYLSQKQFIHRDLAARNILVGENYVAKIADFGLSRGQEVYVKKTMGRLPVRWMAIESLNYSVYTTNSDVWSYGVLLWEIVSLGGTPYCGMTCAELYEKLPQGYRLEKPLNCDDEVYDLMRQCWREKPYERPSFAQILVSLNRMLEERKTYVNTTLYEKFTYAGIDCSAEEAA
Chain of SRSF protein kinase 2 (Homo sapiens) (P78362 whole entry, looked up): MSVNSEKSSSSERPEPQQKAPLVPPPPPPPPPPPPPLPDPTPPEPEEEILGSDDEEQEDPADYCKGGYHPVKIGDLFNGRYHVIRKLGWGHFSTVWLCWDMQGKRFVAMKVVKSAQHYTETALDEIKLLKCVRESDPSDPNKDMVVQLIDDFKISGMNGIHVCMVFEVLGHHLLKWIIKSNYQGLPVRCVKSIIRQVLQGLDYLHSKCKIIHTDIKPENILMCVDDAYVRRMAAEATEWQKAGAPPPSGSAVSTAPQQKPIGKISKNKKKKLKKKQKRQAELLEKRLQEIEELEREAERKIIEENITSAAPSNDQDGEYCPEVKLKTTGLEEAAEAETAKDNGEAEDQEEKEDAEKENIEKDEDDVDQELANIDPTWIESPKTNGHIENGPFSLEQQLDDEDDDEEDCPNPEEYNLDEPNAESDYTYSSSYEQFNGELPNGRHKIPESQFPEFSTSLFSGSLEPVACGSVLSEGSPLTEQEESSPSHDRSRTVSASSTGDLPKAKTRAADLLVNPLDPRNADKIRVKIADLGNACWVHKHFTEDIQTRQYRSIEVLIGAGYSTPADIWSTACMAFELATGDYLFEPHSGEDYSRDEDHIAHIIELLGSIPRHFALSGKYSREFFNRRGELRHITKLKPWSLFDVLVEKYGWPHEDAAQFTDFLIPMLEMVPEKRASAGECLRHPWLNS
Chain of MAP kinase-activated protein kinase 2 (Homo sapiens) (P49137 whole entry, looked up): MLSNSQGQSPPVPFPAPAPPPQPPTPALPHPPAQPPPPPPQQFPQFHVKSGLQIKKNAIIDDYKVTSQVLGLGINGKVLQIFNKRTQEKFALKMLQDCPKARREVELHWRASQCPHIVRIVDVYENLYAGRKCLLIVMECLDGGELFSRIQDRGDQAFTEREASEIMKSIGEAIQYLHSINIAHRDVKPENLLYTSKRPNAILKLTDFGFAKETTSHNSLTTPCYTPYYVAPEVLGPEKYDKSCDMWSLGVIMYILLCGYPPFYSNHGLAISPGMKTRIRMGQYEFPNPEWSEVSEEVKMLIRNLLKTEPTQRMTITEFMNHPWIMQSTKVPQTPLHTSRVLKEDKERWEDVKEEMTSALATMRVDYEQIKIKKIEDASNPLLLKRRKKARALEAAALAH
Chain of Sigma intracellular receptor 2 (Q5BJF2 whole entry): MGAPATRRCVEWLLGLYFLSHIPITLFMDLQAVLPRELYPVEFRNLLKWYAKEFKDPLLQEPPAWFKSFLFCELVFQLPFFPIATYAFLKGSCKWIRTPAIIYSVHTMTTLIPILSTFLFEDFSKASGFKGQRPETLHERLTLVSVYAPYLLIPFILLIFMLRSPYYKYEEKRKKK

Structure (SMILES): CN1CCN(C(=O)C(C)(C)c2ccc(C(=O)Nc3cn4cc(-c5cc(C(C)(C)C)cc(C(C)(C)C)c5)ccc4n3)cc2)CC1 [T3-CLK-N]
- inhibition (Rattus norvegicus): -6.1%
- inhibition [1]: 68.3%
- inhibition [2]: 78.1%
- inhibition [3]: 40.4%
- Ki ([4]; read-out: Ki): 3560 nM
- Ki ([4]; read-out: pKi (converted)): 3470 nM
- Ki [5]: 412 nM
- Ki ([6]; read-out: Ki): 5530 nM
- Ki ([6]; read-out: pKi (converted)): 5370 nM
- Ki (Histamine H1 receptor; read-out: Ki): 1900 nM
- Ki (Histamine H1 receptor; read-out: pKi (converted)): 1320 nM
- inhibition [7]: 83%
- Ki ([8]; read-out: Ki): 1530 nM
- Ki ([8]; read-out: pKi (converted)): 1320 nM
- inhibition [9]: 57%
- Ki (Histamine H2 receptor; read-out: Ki): 1730 nM
- Ki (Histamine H2 receptor; read-out: pKi (converted)): 1620 nM
- Ki ([10]; read-out: Ki): 2090 nM
- Ki ([10]; read-out: pKi (converted)): 1950 nM
- Ki (D(3) dopamine receptor; read-out: Ki): 2250 nM
- Ki (D(3) dopamine receptor; read-out: pKi (converted)): 1910 nM

Structure (SMILES): CN1CCN(C(=O)C(C)(C)c2ccc(C(=O)Nc3cn4cc(-c5ccncc5)ccc4n3)cc2)CC1 [T3-CLK]
- inhibition ([11]; Compound concentration 0.1 uM): 4.38%
- inhibition ([11]; Compound concentration 1.0 uM): 3.75%
- inhibition ([12]; Compound concentration 0.1 uM): 12.4%
- inhibition ([12]; Compound concentration 1.0 uM): 10.9%
- inhibition [13, 38]: 1.82%
- inhibition ([13]; Compound concentration 1.11 uM): 5.16%
- inhibition ([14]; Compound concentration 0.1 uM): -3.68%
- inhibition ([14]; Compound concentration 1.0 uM): -0.398%
- inhibition [15]: -7.39%
- inhibition [3]: 21.1%
- inhibition ([16]; Compound concentration 0.1 uM): 0.334%
- inhibition ([16]; Compound concentration 1.0 uM): 3.32%
- inhibition [17, 38]: -8.38%
- inhibition ([17]; Compound concentration 1.11 uM): -2.87%
- inhibition ([18]; Compound concentration 0.1 uM): 4.83%
- inhibition ([18]; Compound concentration 1.0 uM): 4.09%
- inhibition ([19]; Compound concentration 0.1 uM): 2.74%
- inhibition ([19]; Compound concentration 1.0 uM): 4.01%
- Ki (Histamine H1 receptor; read-out: Ki): 2150 nM
- inhibition [20, 38]: 92.1%
- inhibition ([20]; Compound concentration 1.11 uM): 100%
- inhibition [7]: 12.4%
- inhibition ([21]; Compound concentration 0.1 uM): -1.64%
- inhibition ([21]; Compound concentration 1.0 uM): -0.564%
- inhibition ([22]; Compound concentration 0.1 uM): -1.57%
- inhibition ([22]; Compound concentration 1.0 uM): 3.62%
- inhibition ([23]; Compound concentration 0.1 uM): 5.45%
- inhibition ([23]; Compound concentration 1.0 uM): 2.56%
- inhibition ([24]; Compound concentration 0.1 uM): -0.71%
- inhibition ([24]; Compound concentration 1.0 uM): 2.69%
- inhibition ([25]; Compound concentration 0.1 uM): 5.17%
- inhibition ([25]; Compound concentration 1.0 uM): 9.37%
- inhibition ([26]; Compound concentration 0.1 uM): 1.85%
- inhibition ([26]; Compound concentration 1.0 uM): -1.12%
- inhibition [27]: 10.9%
- inhibition ([28]; Compound concentration 0.1 uM): 11%
- inhibition ([28]; Compound concentration 1.0 uM): 37.5%
- inhibition ([29]; Compound concentration 0.1 uM): 4.88%
- inhibition ([29]; Compound concentration 1.0 uM): 6.39%
- inhibition ([30]; Compound concentration 0.1 uM): 0.108%
- inhibition ([30]; Compound concentration 1.0 uM): -0.329%
- inhibition ([31]; Compound concentration 0.1 uM): 3.68%
- inhibition ([31]; Compound concentration 1.0 uM): 2.12%
- inhibition [32, 38]: 91.2%
- inhibition ([32]; Compound concentration 1.11 uM): 99.1%
- inhibition ([33]; Compound concentration 0.1 uM): 15.6%
- inhibition ([33]; Compound concentration 1.0 uM): 11.3%
- inhibition ([34]; Compound concentration 0.1 uM): -5.79%
- inhibition ([34]; Compound concentration 1.0 uM): -4.96%
- inhibition ([35]; Compound concentration 0.1 uM): 6.77%
- inhibition ([35]; Compound concentration 1.0 uM): 16.1%
- inhibition ([36]; Compound concentration 0.1 uM): -1.05%
- inhibition ([36]; Compound concentration 1.0 uM): -2.43%
- inhibition ([37]; Compound concentration 0.1 uM): 3.86%
- inhibition ([37]; Compound concentration 1.0 uM): 25.1%
